The values below come from patent publication US20240294498A1, “FACTOR XIIA INHIBITORS” (Lunac Therapeutics Ltd, priority 2021, published 2024).

Common to all, as to assay type: biochemical
One test deals with T1, FXIIa (Homo sapiens, UniProt P00748).
T1 construct: FXIIa alpha
T1 sequence (P00748 373-615 limits assumed): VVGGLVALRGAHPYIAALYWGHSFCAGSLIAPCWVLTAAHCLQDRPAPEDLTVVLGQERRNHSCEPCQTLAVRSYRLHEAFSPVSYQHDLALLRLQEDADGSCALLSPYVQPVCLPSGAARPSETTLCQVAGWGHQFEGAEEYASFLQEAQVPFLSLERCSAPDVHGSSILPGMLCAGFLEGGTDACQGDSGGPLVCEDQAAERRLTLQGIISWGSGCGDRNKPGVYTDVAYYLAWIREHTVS
T1 sequence (P00748 20-372 partner limits assumed): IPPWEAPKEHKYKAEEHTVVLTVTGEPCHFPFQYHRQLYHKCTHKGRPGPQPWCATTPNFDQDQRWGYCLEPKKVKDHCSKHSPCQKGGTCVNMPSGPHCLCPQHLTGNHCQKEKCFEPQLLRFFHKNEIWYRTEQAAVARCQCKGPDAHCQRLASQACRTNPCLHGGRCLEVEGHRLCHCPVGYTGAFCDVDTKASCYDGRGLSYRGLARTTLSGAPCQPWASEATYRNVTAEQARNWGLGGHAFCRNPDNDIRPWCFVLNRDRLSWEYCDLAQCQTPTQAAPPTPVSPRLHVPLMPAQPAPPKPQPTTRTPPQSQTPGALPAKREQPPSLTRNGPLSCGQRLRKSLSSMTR
The experiment in a line: Determination of Factor XIIa inhibition (chromogenic substrate S-2302). The note with it: human FXIIa alpha, Ki category. The procedure, abridged: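 Compound preincubated with 10 nM FXIIa for 10 min at 37° C in 50 mM Tris, 137 mM NaCl, pH 7.4, 5% DMSO, top concentration 500 μM; S-2302 added at Km. pNA release followed at 405 nm for 3 h; IC50 from initial rates, converted to Ki via Ki = IC50/(1+[S]/Km).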

The next test has as its target FXa (Homo sapiens, UniProt P00742). The experiment in a line: Determination of selectivity: FXa inhibition (chromogenic substrate S2765). The note with it: fold selectivity for FXIIa over FXa (human); category. The method, boiled down:
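FXa (5 nM) preincubated with increasing compound (top 500 μM) for 10 mins at 37° C in 50 mM Tris, 137 mM NaCl pH 7.4, 5% DMSO, then S2765 added at its KM. Absorbance at 405 nm followed kinetically for 3 hours; IC50 from initial rates, converted to Ki by Cheng-Prusoff.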

The target of the next test is T2, thrombin (Homo sapiens, UniProt P00734).
T2 construct: FXa (5 nM) and thrombin (5 nM)
The experiment in a line: Determination of selectivity: thrombin inhibition (chromogenic substrate GPR). The note with it: fold selectivity for FXIIa over thrombin (human); category. The procedure, abridged: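 Thrombin (5 nM) preincubated with increasing compound concentrations (top 500 μM, 5% DMSO) 10 min at 37 °C in 50 mM Tris, 137 mM NaCl pH 7.4, then GPR chromogenic substrate at its KM. pNA release read kinetically at 405 nm for 3 h at 37 °C. IC50 from initial rates, converted to Ki via Cheng–Prusoff.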

SMILES strings stand for the structures. pKi: −log10 of the molar value. Where only a bound is given, the exact number is not on record here.

Chain of FXa (P00742 235-488 limits assumed): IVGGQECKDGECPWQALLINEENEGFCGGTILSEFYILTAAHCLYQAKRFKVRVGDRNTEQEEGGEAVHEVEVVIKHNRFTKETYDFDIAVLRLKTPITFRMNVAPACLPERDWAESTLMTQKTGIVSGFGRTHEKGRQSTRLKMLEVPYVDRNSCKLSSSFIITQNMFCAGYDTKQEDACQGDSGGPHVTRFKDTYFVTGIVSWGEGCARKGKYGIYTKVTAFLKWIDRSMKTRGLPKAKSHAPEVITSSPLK
Chain of FXa (P00742 41-179 partner limits assumed): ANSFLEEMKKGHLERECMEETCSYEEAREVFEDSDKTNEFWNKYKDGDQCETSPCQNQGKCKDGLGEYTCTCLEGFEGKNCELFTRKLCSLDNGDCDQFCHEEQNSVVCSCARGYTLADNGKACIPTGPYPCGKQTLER

As a reminder, the pKi is the negative decadic logarithm of the Ki, by convention in mol/L. A low value points to a high Ki. As for `Cc1ccc(C[C@@H]2C[C@@H](C(=O)NCc3ccc4[nH]ncc4c3)N(C(=O)[C@@H]3NCCC[C@@H]3C(=O)N3CCCC3)C2)cc1` [Example M05748, (2S,4R)-N-((1H-indazol-5-yl)methyl)-4-(4-methylbenzyl)-1-((2R,3S)-3-(pyrrolidine-1-carbonyl)piperidine-2-carbonyl)pyrrolidine-2-carboxamide], the pKi on FXIIa was 5.30 to 6.10. Besides, the “FXa (human)/FXIIa alpha (human)” value at FXa was “∘∘∘”. In addition, the “Thrombin (human)/FXIIa alpha (human)” value on thrombin is on record as “++ (a fold selectivity value of 10 to 100)”.

`Cc1ccc(C[C@@H]2C[C@@H](C(=O)NCc3ccc4c(cnn4C)c3)N(C(=O)[C@@H]3NCCC[C@@H]3C(=O)N(C)CCN3CC(F)C3)C2)cc1` [Example M06099, (2R,3S)-N-(2-(3-fluoroazetidin-1-yl)ethyl)-N-methyl-2-((2S,4R)-2-(((1-methyl-1H-indazol-5-yl)methyl)carbamoyl)-4-(4-methylbenzyl)pyrrolidine-1-carbonyl)piperidine-3-carboxamide] gave a pKi on FXIIa greater than 6.70. Besides, the “FXa (human)/FXIIa alpha (human)” value on FXa is listed as “∘∘∘”. Also, the “Thrombin (human)/FXIIa alpha (human)” value on thrombin is on record as “+++ (fold selectivity values greater than 100)”.

On to `CN(C)CCN(C)C(=O)[C@H]1CCCN[C@H]1C(=O)N1C[C@H](Cc2ccc(C3CC3)cc2)C[C@H]1C(=O)NCc1ccc2c(cnn2C)c1` [Example M06060, (2R,3S)-2-((2S,4R)-4-(4-cyclopropylbenzyl)-2-(((1-methyl-1H-indazol-5-yl)methyl)carbamoyl)pyrrolidine-1-carbonyl)-N-(2-(dimethylamino)ethyl)-N-methylpiperidine-3-carboxamide], for which the pKi at FXIIa is greater than 6.70. On FXa, the “FXa (human)/FXIIa alpha (human)” value was “∘∘∘”. The “Thrombin (human)/FXIIa alpha (human)” value at thrombin is “+++ (fold selectivity values greater than 100)”.

Regarding `Cc1ccc2c(c1)CCN2C1C[C@@H](C(=O)NCc2ccc3c(cnn3C)c2)N(C(=O)[C@@H]2NCCC[C@@H]2C(=O)N2CCCC2)C1` (single isomer, unassigned) [Example M05839], the negative logarithm of the Ki (pKi) at FXIIa is 6.10 to 6.70. Moreover, the “FXa (human)/FXIIa alpha (human)” value on FXa is “∘∘∘”. Also, on thrombin, the “Thrombin (human)/FXIIa alpha (human)” value is reported as “+++ (fold selectivity values greater than 100)”.

In turn, `Cn1nnc2cc(CNC(=O)[C@@H]3C/C(=C/C4=CCC5(CC4)CC5)CN3C(=O)[C@@H]3NCCC[C@@H]3C(=O)N3CCCC3)ccc21` [Example M05992, (S,Z)-N-((1-methyl-1H-benzo[d][1,2,3]triazol-5-yl)methyl)-1-((2R,3S)-3-(pyrrolidine-1-carbonyl)piperidine-2-carbonyl)-4-(spiro[2.5]oct-5-en-6-ylmethylene)pyrrolidine-2-carboxamide] had a negative-log Ki (pKi) on FXIIa of 6.10 to 6.70. For the same compound, the “FXa (human)/FXIIa alpha (human)” value on FXa was “∘∘∘”. Besides, on thrombin, the “Thrombin (human)/FXIIa alpha (human)” value was “+++ (fold selectivity values greater than 100)”.

In the case of `Cn1ncc2cc(CNC(=O)[C@@H]3C[C@@H](Cc4ncc(C5CC5)o4)CN3C(=O)[C@@H]3NCCC[C@@H]3C(=O)N3CCCC3)ccc21` [Example M06009], at FXIIa, the pKi was 6.10 to 6.70. In addition, the “FXa (human)/FXIIa alpha (human)” value at FXa is on record as “∘∘∘”. For the same compound, at thrombin, the “Thrombin (human)/FXIIa alpha (human)” value is “+++ (fold selectivity values greater than 100)”.

In the case of `Cc1ccc(C[C@@H]2C[C@@H](C(=O)NCc3ccc4c(cnn4C)c3)N(C(=O)[C@@H]3NCCC[C@@H]3C(=O)N(C)C3CCN(C4CC4)CC3)C2)cc1` [Example M06112, (2R,3S)-N-(1-cyclopropylpiperidin-4-yl)-N-methyl-2-((2S,4R)-2-(((1-methyl-1H-indazol-5-yl)methyl)carbamoyl)-4-(4-methylbenzyl)pyrrolidine-1-carbonyl)piperidine-3-carboxamide], the pKi at FXIIa is greater than 6.70. Further, at FXa, the “FXa (human)/FXIIa alpha (human)” value is reported as “∘∘∘”. At thrombin, the “Thrombin (human)/FXIIa alpha (human)” value is reported as “+++ (fold selectivity values greater than 100)”.

`Cc1ccc(C[C@@H]2C[C@@H](C(=O)NCc3ccc4c(cnn4C)c3)N(C(=O)[C@@H]3NCCC[C@@H]3C(=O)N3CCOCC3)C2)cc1` [Example M05753, (2S,4R)—N-((1-methyl-1H-indazol-5-yl)methyl)-4-(4-methylbenzyl)-1-((2R,3S)-3-(morpholine-4-carbonyl)piperidine-2-carbonyl)pyrrolidine-2-carboxamide]: at FXIIa, the pKi is 6.10 to 6.70. Besides, the “FXa (human)/FXIIa alpha (human)” value on FXa is “∘∘∘”. On thrombin, the “Thrombin (human)/FXIIa alpha (human)” value is recorded as “++ (a fold selectivity value of 10 to 100)”.

In the case of `Cc1ccc(C[C@@H]2C[C@@H](C(=O)NCc3ccc4c(cnn4C)c3)N(C(=O)[C@@H]3NCCC[C@@H]3C(=O)N3CC[C@@H](F)C3)C2)cc1` [Example M05785, (2S,4R)-1-((2R,3S)-3-((R)-3-fluoropyrrolidine-1-carbonyl)piperidine-2-carbonyl)-N-((1-methyl-1H-indazol-5-yl)methyl)-4-(4-methylbenzyl)pyrrolidine-2-carboxamide], the pKi on FXIIa is greater than 6.70. Further, the “FXa (human)/FXIIa alpha (human)” value at FXa was “∘∘∘”. The “Thrombin (human)/FXIIa alpha (human)” value at thrombin is recorded as “+++ (fold selectivity values greater than 100)”.

At FXIIa, `Cc1ccc(C[C@@H]2C[C@@H](C(=O)NCc3ccc4c(cnn4C)c3)N(C(=O)[C@@H]3NCCC[C@@H]3C(=O)N3C4CCC3CC4)C2)cc1` [Example M05804, (2S,4R)-1-((2R,3S)-3-(7-azabicyclo[2.2.1]heptane-7-carbonyl)piperidine-2-carbonyl)-N-((1-methyl-1H-indazol-5-yl)methyl)-4-(4-methylbenzyl)pyrrolidine-2-carboxamide] gave a pKi of 6.10 to 6.70. Besides, at FXa, the “FXa (human)/FXIIa alpha (human)” value is “∘∘∘”. For the same compound, the “Thrombin (human)/FXIIa alpha (human)” value on thrombin is recorded as “+++ (fold selectivity values greater than 100)”.

`Cc1ccc(C[C@@H]2C[C@@H](C(=O)NCc3cc4cncc(F)c4[nH]3)N(C(=O)[C@@H]3NCCC[C@@H]3C(=O)N3CCCC3)C2)cc1` [Example M05712, (2S,4R)-N-((7-fluoro-1H-pyrrolo[3,2-c]pyridin-2-yl)methyl)-4-(4-methylbenzyl)-1-((2R,3S)-3-(pyrrolidine-1-carbonyl)piperidine-2-carbonyl)pyrrolidine-2-carboxamide] gave a pKi on FXIIa of 6.10 to 6.70. The “FXa (human)/FXIIa alpha (human)” value on FXa is “∘∘∘”. The “Thrombin (human)/FXIIa alpha (human)” value on thrombin is “+++ (fold selectivity values greater than 100)”.

As to `Cn1ncc2cc(CNC(=O)[C@@H]3C[C@@H](Cc4cc(C5CC5)on4)CN3C(=O)[C@@H]3NCCC[C@@H]3C(=O)N3CCC[C@@H]3C(F)(F)F)ccc21` [Example M06047, (2S,4S)-4-+(5-cyclopropylisoxazol-3-yl)methyl+-N-+(1-methylindazol-5-yl)methyl+-1-+(2R,3S)-3-+(2R)-2-(trifluoromethyl)pyrrolidine-1-carbonyl+piperidine-2-carbonyl+pyrrolidine-2-carboxamide], at FXIIa, the pKi is greater than 6.70. Further, the “FXa (human)/FXIIa alpha (human)” value on FXa was “∘∘∘”. The “Thrombin (human)/FXIIa alpha (human)” value at thrombin is “+++ (fold selectivity values greater than 100)”.

Compound `Cn1ncc2cc(CNC(=O)[C@@H]3C[C@@H](Cc4ccc(C5CC5)nn4)CN3C(=O)[C@@H]3NCCC[C@@H]3C(=O)N3CCCC3)ccc21` [Example M05997, (2S,4S)-4-[(6-cyclopropylpyridazin-3-yl)methyl]-N-[(1-methylindazol-5-yl)methyl]-1-[(2R,3S)-3-(pyrrolidine-1-carbonyl)piperidine-2-carbonyl]pyrrolidine-2-carboxamide] had a pKi on FXIIa of 6.10 to 6.70. Also, the “FXa (human)/FXIIa alpha (human)” value at FXa is “∘∘∘”. Also, the “Thrombin (human)/FXIIa alpha (human)” value on thrombin was “+++ (fold selectivity values greater than 100)”.
